Measurements taken from PubChem BioAssay (NCI).
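1) Cells in 96-well plates. 2) Compound, 48 h, 5 concentrations. 3) Linear interpolation between surrounding doses. 4) Unreached endpoint = highest concentration. GI50: concentration for 50% inhibition of growth. At the TGI there is no net growth.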

Assays:
Test in all cases: growth of human tumour cells (NCI), 48 h
A498 renal = test system: A498 renal
A549 NSCLC = test system: A549 NSCLC
EKVX NSCLC = test system: EKVX NSCLC
M14 melanoma = test system: M14 melanoma
MDA-MB-435 = test system: MDA-MB-435
MOLT-4 leukemia = test system: MOLT-4 leukemia
NCI-H226 lung = test system: NCI-H226 lung
PC-3 prostate = test system: PC-3 prostate
T-47D breast = test system: T-47D breast
UACC-257 melanoma = test system: UACC-257 melanoma

Row | Structure (SMILES) | GI50 (A498 renal) [µM] | TGI (A498 renal) [µM] | GI50 (A549 NSCLC) [µM] | TGI (A549 NSCLC) [µM] | GI50 (EKVX NSCLC) [nM] | TGI (EKVX NSCLC) [µM] | GI50 (M14 melanoma) [µM] | TGI (M14 melanoma) [µM] | GI50 (MDA-MB-435) [µM] | TGI (MDA-MB-435) [µM] | GI50 (MOLT-4 leukemia) [nM] | TGI (MOLT-4 leukemia) [µM] | GI50 (NCI-H226 lung) [nM] | TGI (NCI-H226 lung) [µM] | GI50 (PC-3 prostate) [nM] | TGI (PC-3 prostate) [µM] | GI50 (T-47D breast) [µM] | TGI (T-47D breast) [µM] | GI50 (UACC-257 melanoma) [µM] | TGI (UACC-257 melanoma) [µM]
1 | COc1cc(-c2nc(-c3ccc(-c4nc5ccc(F)cc5[nH]4)cc3)no2)cc(OC)c1OC | 4.19 | 26.1 | 3.42 | 14.6 | 3450 | 27.4 | 3.23 | 10.5 | 2.73 | 10.7 | 1990 | 5.44 | 2720 | 10.7 | 2330 | 7.59 | 2.72 | 7.46 | 3.7 | 14.8
2 | Fc1cccc(Cl)c1Cn1c(-c2c(F)cccc2Cl)nc2ccccc21 | 19.2 | 36.6 | 11.6 | 33.7 | 13300 | 32.6 | 19.4 | 53.9 | 20.1 | 61.7 | 11100 | > 100 | 22000 | 57.8 | 14700 | 55.3 | 13.9 | 62.9 | 12.9 | 28.6
3 | Clc1ccc2nc(Cl)c3ccccc3c2c1 | 2.22 | 9.85 | 5.92 | > 100 |  |  | > 100 | > 100 | 23.6 | > 100 | > 100000 | > 100 | 14000 | > 100 | > 100000 | > 100 | 4.02 | > 100 | > 100 | > 100
4 | CC(C)C[CH2][Ge]([CH2]CC(C)C)([CH2]CC(C)C)[CH2]CC(C)C | > 100 | > 100 | > 100 | > 100 | > 100000 | > 100 | > 100 | > 100 | > 100 | > 100 | > 100000 | > 100 | > 100000 | > 100 | > 100000 | > 100 | > 100 | > 100 | > 100 | > 100
5 | O=C1NC(=O)[C@@H](c2c[nH]c3ccccc23)[C@@H]1c1c[nH]c2ccccc12 | > 25 | > 25 | > 25 | > 25 |  |  | > 25 | > 25 | > 25 | > 25 | > 25000 | > 25 | > 25000 | > 25 | > 25000 | > 25 | > 25 | > 25 | > 25 | > 25
6 | Nc1nccc2c1ccn2-c1cccc(NC(=O)c2ccc(N3CCOCC3)c(C(F)(F)F)c2)c1 | 0.304 | 2.05 | 0.922 | > 50 | 1990 | > 50 | 0.788 | 7.6 | 0.163 | > 50 | 1700 | > 22.8 | 1740 | 18.1 | 565 | 15 | 1.98 | 29.9 | 2.08 | 31.1
7 | COc1ccc2c(c1)[nH]c(=O)c1c3cc(OC)c(OC)cc3cn21 | < 0.01 | 0.072 | < 0.01 | 1.41 | 31.2 | 18.9 | < 0.01 | 11.8 | < 0.01 | < 0.01 | < 15.9 | 1.16 | 70.1 | 24.4 | < 10 | 1.6 | 15.4 | 35.6 | 14.7 | 29.5
8 | C=C(C)[C@@H]1CC[C@]2(C(=O)O)CC[C@]3(C)[C@H](CC[C@@H]4[C@@]5(C)C/C(=C/c6cccc(I)c6)C(=O)C(C)(C)[C@@H]5CC[C@]43C)[C@@H]12 | 2.1 | 6.72 | 1.49 | 6.31 | 2650 | 12.7 | 2.14 | 5.21 | 2.98 | 9.74 | 2850 | 9.45 | 2640 | 10.1 | 2200 | 10.6 | 2.9 | 19 | 2.51 | 8.23
9 | O=C(Oc1ccccc1Cl)c1ccccc1Nc1cccc(C(F)(F)F)c1 | 24.8 | 54.8 | 36 | > 100 | 33100 | 79.6 | 13.9 | 38.9 | 11.7 | 32.3 | 3890 | 14.6 | 20200 | 47.9 | 26000 | > 100 | 43.4 | > 100 | 26.4 | 76
10 | O=C(c1nn(-c2ccc(Cl)cc2)cc1O)n1nc(C(F)(F)F)cc1-c1ccccc1 | 5.93 | > 73.9 | 6.51 | > 100 | 2000 | > 100 | 3.69 | > 52.2 | 3.38 | > 100 | 2550 | > 100 | 2170 | > 40.7 | 13900 | > 100 | 4.01 | > 100 | 2.25 | 18.2
11 | COc1ccc(C(=O)/C=C/c2cc(-c3ccc4c(c3)OCO4)n[nH]2)cc1OC | 1.55 | 4.23 | 2.7 | 15.8 |  |  | 6.36 | 21.4 | 3.03 | 10 | 3000 | 10.3 | 3400 | 11.2 | 2580 | 18.2 | 3.23 | 26.1 | 7.06 | 22.1
12 | Cc1cn([C@H]2C[C@H](O)[C@@H](CO)O2)c(=O)nc1N |  | > 100 |  | > 100 |  |  |  | > 100 |  | > 100 |  | > 100 |  | > 100 |  | > 100 |  | > 100 |  | > 100
13 | COc1cc(OC)c(F)c(COc2cnc(Nc3cnn(CCO)c3)nc2)c1F | < 0.0107 | 0.138 | 1.37 | > 100 | 1940 | > 100 |  |  | 0.2 | 0.59 | 668 | > 100 | 343 | > 23.9 | 1680 | > 100 | 1.68 | > 100 | 1.45 | > 100
